# Assay results reported in ChEMBL document CHEMBL1140363, “Structure-driven HtL: design and synthesis of novel aminoindazole inhibitors of c-Jun N-terminal kinase activity” (Bioorg Med Chem Lett, 2005).
# Biological target: Mitogen-activated protein kinase 8 (Homo sapiens, UniProt P45983)
# Experiment: Negative log of inhibitory concentration determined against c-Jun N-terminal kinase (Activity reported against the isolated JNK-1 enzyme)
# Mitogen-activated protein kinase 8, sequence (P45983 whole entry): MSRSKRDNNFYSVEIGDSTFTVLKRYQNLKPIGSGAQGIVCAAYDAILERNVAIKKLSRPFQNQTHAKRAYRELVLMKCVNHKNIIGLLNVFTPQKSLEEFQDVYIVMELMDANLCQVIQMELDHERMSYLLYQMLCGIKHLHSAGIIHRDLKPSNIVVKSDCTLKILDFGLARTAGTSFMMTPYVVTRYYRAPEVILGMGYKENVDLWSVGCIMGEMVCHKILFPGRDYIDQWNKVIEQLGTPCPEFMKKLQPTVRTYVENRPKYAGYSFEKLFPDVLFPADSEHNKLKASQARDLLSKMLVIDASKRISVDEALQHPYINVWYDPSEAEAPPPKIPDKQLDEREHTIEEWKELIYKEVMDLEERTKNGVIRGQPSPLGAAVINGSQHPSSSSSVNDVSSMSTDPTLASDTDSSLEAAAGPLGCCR
row,Compound,IC50
1,COc1ccc(OC)c(CNc2[nH]nc3cccc(Oc4ccc(F)cc4)c23)c1,200 nM
2,CC(=O)Nc1ccc(CNc2[nH]nc3cccc(Oc4ccccc4)c23)cc1,794 nM
3,CC(=O)Nc1ccc(CNc2[nH]nc3cccc(Oc4ccc(S(C)(=O)=O)cc4)c23)cc1,794 nM
4,O=[N+]([O-])c1ccc2[nH]nc(NCc3ccccc3Cl)c2c1Oc1ccccc1,1580 nM
5,COc1ccc(OC)c(CNc2[nH]nc3ccc([N+](=O)[O-])c(Oc4ccccc4)c23)c1,794 nM
6,Clc1ccc(Cl)c(CNc2[nH]nc3cccc(Oc4ccccc4)c23)c1,794 nM
7,COc1ccc(OC)c(CNC(=O)c2cccnc2Oc2ccccc2)c1,100 nM
8,C[C@H](NC(=O)c1cccnc1Oc1ccccc1)c1ccccc1,6310 nM
9,COc1ccc(OC)c(CNc2[nH]nc3cccc(Oc4ccccc4)c23)c1,126 nM
10,CC(=O)Nc1ccc(CNc2[nH]nc3cccc(Oc4ccc(F)cc4)c23)cc1,501 nM
11,Nc1ccc2[nH]nc(NCc3ccccc3Cl)c2c1Oc1ccccc1,5010 nM
12,COc1ccc(OC)c(CNc2[nH]nc3cccc(Oc4ccc(S(C)(=O)=O)cc4)c23)c1,398 nM
13,CC(=O)Nc1ccc(CNc2[nH]nc3ccnc(Oc4ccccc4)c23)cc1,158 nM
14,O=C(NCc1ccccc1Cl)c1cccnc1Oc1ccccc1F,1580 nM
15,COc1ccc(OC)c(CNc2[nH]nc3ccnc(Oc4ccccc4)c23)c1,15.8 nM
16,Clc1cccc(CNc2[nH]nc3cccc(Oc4ccccc4)c23)c1,1260 nM
17,COc1ccc(Oc2ncccc2C(=O)NCc2ccccc2Cl)cc1,3980 nM
